Assay results: US10544150B2, “NK-3 receptor selective antagonist compounds, pharmaceutical composition and methods for use in NK-3 receptors mediated disorders” (Ogeda SA, priority 2010, dated 2020)

biological target: human NK-3 receptor (Homo sapiens (Human), UniProt P29371); assay: 3H-SB222200 binding competition assay with human NK-3 receptor; details: 3H-SB222200 displacement, CHO cell membranes expressing human NK3 receptor; read-out: Ki range
Experimental: The affinity of compounds of the invention for the tachykinin receptors was determined by measuring the ability of the compounds of the invention to displace a radiolabeled ligand from its specifics binding site.
^3H-SB222200 Binding Competition Assay with Human NK-3 Receptor
The ability of the compounds of the invention to inhibit the binding of the NK-3 receptor selective antagonist SB222200 was assessed by an in vitro radioligand binding assay. Membranes were prepared from Chinese hamster ovary recombinant cells which express the human NK3 receptor. The membranes were incubated with 5 nM ^3H-SB222200_(ARC) in a HEPES 25 mM/NaCl 0.1M/CaCl2 1 mM/MgCl2 5 Mm/BSA 0.5%/Saponin 10 μg/ml buffer at pH 7.4 and various concentrations of the compounds of the invention. The amount of tritiated SB222200 bound to the receptor was determined after filtration by the quantification of membrane associated radioactivity using the TopCount-NXT reader (Packard). […] In Table 3 biological results obtained using the ^3H-SB222200 binding competition assay with compounds of the invention are set out in tabulated form. In this table the calculated Ki is given. The Ki value obtained (in accordance with the protocol set forth above) is represented as follows: “+++” means Ki<500 nM; “++” means 500 nM≤Ki≤1 μM; “+” means 1 μM<Ki≤5 μM; “#” means Ki>5 μM.

Sequence of human NK-3 receptor (P29371 whole entry): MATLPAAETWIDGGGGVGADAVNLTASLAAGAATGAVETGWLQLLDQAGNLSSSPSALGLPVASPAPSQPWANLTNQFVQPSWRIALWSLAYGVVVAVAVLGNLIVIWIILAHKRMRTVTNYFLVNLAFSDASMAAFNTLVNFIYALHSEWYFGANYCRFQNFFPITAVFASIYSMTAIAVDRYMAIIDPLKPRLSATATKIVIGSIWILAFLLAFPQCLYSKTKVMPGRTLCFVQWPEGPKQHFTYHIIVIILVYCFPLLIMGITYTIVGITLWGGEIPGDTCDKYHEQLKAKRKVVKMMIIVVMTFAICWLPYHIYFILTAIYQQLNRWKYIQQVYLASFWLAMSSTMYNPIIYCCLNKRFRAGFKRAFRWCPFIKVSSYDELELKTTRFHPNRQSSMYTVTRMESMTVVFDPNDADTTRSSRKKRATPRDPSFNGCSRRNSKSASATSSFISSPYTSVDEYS

| SMILES | Ki |
| --- | --- |
| Cc1ccc(C(=O)N2CCn3c(nnc3-c3ccccn3)C2)cc1 [Compound 232, (3-(pyridin-2-yl)-5,6-dihydro-[1,2,4]triazolo[4,3-a]pyrazin-7(8H)-yl)(p-tolyl)methanone] | 1000 to 5000 nM |
| O=C(c1ccc(F)cc1)N1CCn2c(nnc2-c2n[nH]c(-c3ccccc3)n2)C1 [Compound 178, (4-fluorophenyl)(3-(5-phenyl-1H-1,2,4-triazol-3-yl)-5,6-dihydro-[1,2,4]triazolo[4,3-a]pyrazin-7(8H)-yl)methanone] | 1000 to 5000 nM |
| O=C(c1ccc(F)cc1)N1CCn2c(nnc2-c2cccc(N3CCOCC3)n2)C1 [Compound 38, (4-fluorophenyl)(3-(6-morpholinopyridin-2-yl)-5,6-dihydro-[1,2,4]triazolo[4,3-a]pyrazin-7(8H)-yl)methanone] | < 500 nM |
| O=C(c1ccc(F)cc1)N1CCn2c(nnc2-c2ccc3cccc(F)c3n2)C1 [Compound 22, (4-fluorophenyl)(3-(8-fluoroquinolin-2-yl)-5,6-dihydro-[1,2,4]triazolo[4,3-a]pyrazin-7(8H)-yl)methanone] | 500 to 1000 nM |
| COc1ccccc1-c1nc(-c2nnc3n2CCN(C(=O)c2ccc(-c4ccccc4)cc2)C3)cs1 [Compound 203, [1,1′-biphenyl]-4-yl(3-(2-(2-methoxyphenyl)thiazol-4-yl)-5,6-dihydro-[1,2,4]triazolo[4,3-a]pyrazin-7(8H)-yl)methanone] | 500 to 1000 nM |
| O=C(c1ccc(-c2cccs2)cc1)N1CCn2c(nnc2-c2ccccn2)C1 [Compound 21, (3-(pyridin-2-yl)-5,6-dihydro-[1,2,4]triazolo[4,3-a]pyrazin-7(8H)-yl)(4-(thiophen-2-yl)phenyl)methanone] | < 500 nM |
| O=C(c1ccc(F)cc1)N1CCn2c(nnc2-c2csc(-c3ccc(N4CCOCC4)cc3)n2)C1 [Compound 240, (4-fluorophenyl)(3-(2-(4-morpholinophenyl)thiazol-4-yl)-5,6-dihydro-[1,2,4]triazolo[4,3-a]pyrazin-7(8H)-yl)methanone] | 500 to 1000 nM |
| O=C(c1ccc(F)cc1)N1CCn2c(nnc2-c2cccc(C(F)(F)F)n2)C1 [Compound 39, (4-fluorophenyl)(3-(6-(trifluoromethyl)pyridin-2-yl)-5,6-dihydro-[1,2,4]triazolo[4,3-a]pyrazin-7(8H)-yl)methanone] | 500 to 1000 nM |
| C[C@@H]1c2nnc(-c3nc(-c4ccc(F)cc4)no3)n2CCN1C(=O)c1ccc(-c2cccs2)cc1 [Compound 169, (R)-(3-(3-(4-fluorophenyl)-1,2,4-oxadiazol-5-yl)-8-methyl-5,6-dihydro-[1,2,4]triazolo[4,3-a]pyrazin-7(8H)-yl)(4-(thiophen-2-yl)phenyl)methanone] | < 500 nM |
| O=C(c1ccc(F)cc1)N1CCn2c(nnc2-c2csc(-c3ccc(C(F)(F)F)cc3)n2)C1 [Compound 24, (4-fluorophenyl)(3-(2-(4-(trifluoromethyl)phenyl)thiazol-4-yl)-5,6-dihydro-[1,2,4]triazolo[4,3-a]pyrazin-7(8H)-yl)methanone] | < 500 nM |
| O=C(c1ccc(F)cc1)N1CCn2c(nnc2-c2ccc3ccccc3n2)C1 [Compound 7, (4-fluorophenyl)(3-(quinolin-2-yl)-5,6-dihydro-[1,2,4]triazolo[4,3-a]pyrazin-7(8H)-yl)methanone] | < 500 nM |
| O=C(c1ccc(F)cc1)N1CCn2c(nnc2-c2noc(-c3ccccc3)n2)C1 [Compound 173, (4-fluorophenyl)(3-(5-phenyl-1,2,4-oxadiazol-3-yl)-5,6-dihydro-[1,2,4]triazolo[4,3-a]pyrazin-7(8H)-yl)methanone] | < 500 nM |
| O=C(c1cc(-c2ccc(Cl)c(Cl)c2)n[nH]1)N1CCn2c(nnc2-c2ccccn2)C1 [Compound 4, (3-(3,4-dichlorophenyl)-1H-pyrazol-5-yl)(3-(pyridin-2-yl)-5,6-dihydro-[1,2,4]triazolo[4,3-a]pyrazin-7(8H)-yl)methanone] | 1000 to 5000 nM |
| CC1c2nnc(-c3csc(N4CCOCC4)n3)n2CCN1C(=O)c1ccc(-c2ccc(F)cc2)cc1 (stereo not drawn) [Compound 53, (4′-fluoro-[1,1′-biphenyl]-4-yl)(8-methyl-3-(2-morpholinothiazol-4-yl)-5,6-dihydro-[1,2,4]triazolo[4,3-a]pyrazin-7(8H)-yl)methanone] | < 500 nM |
| COCCn1nc(-c2ccccc2)cc1-c1nnc2n1CCN(C(=O)c1ccc(F)cc1)C2 [Compound 255, (4-fluorophenyl)(3-(1-(2-methoxyethyl)-3-phenyl-1H-pyrazol-5-yl)-5,6-dihydro-[1,2,4]triazolo[4,3-a]pyrazin-7(8H)-yl)methanone] | 500 to 1000 nM |

Continued, values first:

| Ki | SMILES |
| --- | --- |
| < 500 nM | Cc1ccc(-c2ccc(C(=O)N3CCn4c(-c5csc(-c6ccc(F)cc6)n5)nnc4C3C)cc2)s1 (stereo not drawn) [Compound 215, (3-(2-(4-fluorophenyl)thiazol-4-yl)-8-methyl-5,6-dihydro-[1,2,4]triazolo[4,3-a]pyrazin-7(8H)-yl)(4-(5-methylthiophen-2-yl)phenyl)methanone] |
| < 500 nM | O=C(c1ccc(-c2ccccc2)cc1)N1CCn2c(nnc2-c2csc(-c3ccccc3)n2)C1 [Compound 26, [1,1′-biphenyl]-4-yl(3-(2-phenylthiazol-4-yl)-5,6-dihydro-[1,2,4]triazolo[4,3-a]pyrazin-7(8H)-yl)methanone] |
| < 500 nM | O=C(c1ccc(-c2cccs2)cc1)N1CCn2c(nnc2-c2csc(-c3ccc(F)cc3F)n2)C1 [Compound 170, (3-(2-(2,4-difluorophenyl)thiazol-4-yl)-5,6-dihydro-[1,2,4]triazolo[4,3-a]pyrazin-7(8H)-yl)(4-(thiophen-2-yl)phenyl)methanone] |
| < 500 nM | CC1c2nnc(-c3csc(N4CCOCC4)n3)n2CCN1C(=O)c1ccc(F)cc1 (stereo not drawn) [Compound 52, (4-fluorophenyl)(8-methyl-3-(2-morpholinothiazol-4-yl)-5,6-dihydro-[1,2,4]triazolo[4,3-a]pyrazin-7(8H)-yl)methanone] |
| < 500 nM | O=C(c1ccc(-c2cccs2)cc1)N1CCn2c(nnc2-c2ccc3ccccc3n2)C1 [Compound 69, (3-(quinolin-2-yl)-5,6-dihydro-[1,2,4]triazolo[4,3-a]pyrazin-7(8H)-yl)(4-(thiophen-2-yl)phenyl)methanone] |
| < 500 nM | Cc1sccc1-c1ccc(C(=O)N2CCn3c(-c4csc(-c5ccc(F)cc5)n4)nnc3[C@@H]2C)cc1 [Compound 233, (S)-(3-(2-(4-fluorophenyl)thiazol-4-yl)-8-methyl-5,6-dihydro-[1,2,4]triazolo[4,3-a]pyrazin-7(8H)-yl)(4-(2-methylthiophen-3-yl)phenyl)methanone] |
| < 500 nM | CC1c2nnc(-c3coc(-c4ccccc4)n3)n2CCN1C(=O)c1ccc(F)cc1 (stereo not drawn) [Compound 48, (4-fluorophenyl)(8-methyl-3-(2-phenyloxazol-4-yl)-5,6-dihydro-[1,2,4]triazolo[4,3-a]pyrazin-7(8H)-yl)methanone] |
| < 500 nM | O=C(c1ccc(-c2ccc(F)cc2)cc1)N1CCn2c(nnc2-c2nc(-c3ccccc3)no2)C1 [Compound 223, (4′-fluoro-[1,1′-biphenyl]-4-yl)(3-(3-phenyl-1,2,4-oxadiazol-5-yl)-5,6-dihydro-[1,2,4]triazolo[4,3-a]pyrazin-7(8H)-yl)methanone] |
| < 500 nM | C[C@@H]1c2nnc(-c3csc(N4CCOCC4)n3)n2CCN1C(=O)c1ccc(-c2cccs2)cc1 [Compound 136, (R)-(8-methyl-3-(2-morpholinothiazol-4-yl)-5,6-dihydro-[1,2,4]triazolo[4,3-a]pyrazin-7(8H)-yl)(4-(thiophen-2-yl)phenyl)methanone] |
| < 500 nM | C[C@H]1c2nnc(-c3csc(-c4ccc(F)cc4F)n3)n2CCN1C(=O)c1ccc(-c2cccs2)cc1 [Compound 165, (S)-(3-(2-(2,4-difluorophenyl)thiazol-4-yl)-8-methyl-5,6-dihydro-[1,2,4]triazolo[4,3-a]pyrazin-7(8H)-yl)(4-(thiophen-2-yl)phenyl)methanone] |
| < 500 nM | CC1c2nnc(-c3csc(N4CCOCC4)n3)n2CCN1C(=O)c1ccc(-c2ccccc2)cc1 (stereo not drawn) [Compound 46, [1,1′-biphenyl]-4-yl(8-methyl-3-(2-morpholinothiazol-4-yl)-5,6-dihydro-[1,2,4]triazolo[4,3-a]pyrazin-7(8H)-yl)methanone] |
| < 500 nM | CN1CCN(c2ccc(-c3nc(-c4nnc5n4CCN(C(=O)c4ccc(-c6cccs6)cc4)C5)cs3)cc2)CC1 [Compound 241, (3-(2-(4-(4-methylpiperazin-1-yl)phenyl)thiazol-4-yl)-5,6-dihydro-[1,2,4]triazolo[4,3-a]pyrazin-7(8H)-yl)(4-(thiophen-2-yl)phenyl)methanone] |
| < 500 nM | O=C(c1ccc(F)cc1)N1CCn2c(nnc2-c2csc(-c3ccc(N4CCCC4)cc3)n2)C1 [Compound 246, (4-fluorophenyl)(3-(2-(4-(pyrrolidin-1-yl)phenyl)thiazol-4-yl)-5,6-dihydro-[1,2,4]triazolo[4,3-a]pyrazin-7(8H)-yl)methanone] |
| < 500 nM | O=C(c1ccc(F)cc1)N1CCn2c(nnc2-c2nc(-c3ccccc3)ns2)C1 [Compound 212, (4-fluorophenyl)(3-(3-phenyl-1,2,4-thiadiazol-5-yl)-5,6-dihydro-[1,2,4]triazolo[4,3-a]pyrazin-7(8H)-yl)methanone] |
| < 500 nM | O=C(c1ccc(-c2ccccc2)cc1)N1CCn2c(nnc2-c2csc(N3CCOCC3)n2)C1 [Compound 20, [1,1′-biphenyl]-4-yl(3-(2-morpholinothiazol-4-yl)-5,6-dihydro-[1,2,4]triazolo[4,3-a]pyrazin-7(8H)-yl)methanone] |
